Source: patent US10406227B2, “Photoactivated molecules for light-induced modulation of the activity of electrically excitable cells and methods of using same” (University of Southern California, priority 2012, dated 2019)
“Also recorded” adds a separate entry of the source.

What was measured:
[1] = tested on: HEK293T cells; test: Whole cell patch clamp, current-clamp membrane potential under blue light; assay type: cell-based, human
Protocol: Membrane potential was monitored using whole cell patch clamp in current-clamp mode. Cultured cells (INS and HEK293) were plated on a glass-bottomed culture dishes 1-3 days prior to recording. Cells were incubated in standard extracellular solution with or without 10 μM RubpyC17 compound for approximately 1.5-2 minutes, then washed and incubated with standard extracellular solution without additional supplementation, or with 2-5 mM ascorbate, 100 μM sodium ferrocyanide, or 100-200 μM potassium ferricyanide, as indicated. The chamber was transferred to the microscope stage. Extracellular solution consisted of 140 mM NaCl, 2.8 mM KCl, 10 mM HEPES, 1 mM MgCl2, 2 mM CaCl2, 10 mM glucose, pH adjusted to 7.3, and osmolarity adjusted to 300-310. Conventional whole-cell patch clamp recordings were performed with an EPC-9 amplifier and Pulse software (HEKA Electronics). Pipette electrodes of 1.8-3.5 Mohm were fire polished before use. Intracellular solution consisted of: 145 mM KCl, 10 mM NaCl, 1 mM MgCl2, 1 mM EGTA, 2 mM ATP, 0.3 mM GTP and 10 mM HEPES, pH adjusted to 7.3 and osmolarity adjusted to 290-300 mOsm. To monitor changes in membrane voltage/potential, cells were patch clamped in current-clamp mode. Access resistances were in the range of 3-8 Mohm. Using Pulse, membrane potentials were recorded before, during and after illumination by the argon ion laser at 488 nm with an irradiance value of 0.458 mE s^−1 m^−2 or by a xenon lamp source through a 470/40 nm bandpass excitation filter with an irradiance value of 0.480 mE s^−1 m^−2. […]
Initial attempts were tied to INS and HEK cells, both cells that are not excitable under normal conditions (INS cells were maintained in low glucose <3 mM to prevent action potentials). […] To monitor the plasma membrane potential, the cells were patch-clamped in whole-cell configuration in current-clamp mode and membrane voltages were recorded while illuminating the cell at 488 nm (0.46-0.48 mE s^−1 m^−2), though other wavelengths are useful, depending on the embodiment.

[2] = tested on: chromaffin cells; test: Voltage-clamp current-voltage relationship and steady-state activation before and during light; assay type: cell-based, mouse; conditions: before vs during light illumination
Text: FIGS. 5A-5H depict data from various experiments related to characteristics of RubpyC17-loaded cells. […] Inset images shown to the right of trace confirmed proper integration of RubpyC17 in patched cells. FIGS. 5C-5E show the light-induced action potential firing in chromaffin cells was not due to biophysical changes in voltage-gated ion channels as there were no significant changes in current-voltage relationships (C-D) nor in steady-state activation curve (E) in RubpyC17-loaded chromaffin cells before (open circle) or during ([…]) light illumination. […] Peak inward currents from each stimulation jump were plotted against corresponding stimulating voltages (n=6). […] Data from representative cell is shown (n=5). […] Currents resulting from capacitor-like behavior of chromaffin cell membranes during hyperpolarizing jumps to −85 mV from a resting membrane potential of −80 mV were recorded 5 min following giga-seal formation for amphoterecin B (bottom trace) or 10 min following giga-seal formation for RubpyC17 (top trace).
To examine whether light-activated RubpyC17 can directly interact and open or block endogenous ion channels, HEK293T cells were preincubated with RubpyC17, and patch-clamped in a voltage-clamp configuration. Voltage-clamp configuration allowed the cells to be clamped at a potential where most voltage-gated ion channels are closed (approximately −80 mV). […]

[3] = tested on: leech ganglion neurons; test: Ex vivo leech ganglion neuron recording; assay type: cell-based, Hirudo verbana; conditions: ex vivo ganglia
Protocol: Adult leeches Hirudo verbana will be obtained from Niagara Medical Leeches, Inc. (Westbury, N.Y., USA). Groups (20-30) of animals will be kept in glass aquaria with artificial pond water (36 mg/L Instant Ocean salts; Aquarium Systems, Mentor Ohio), in a temperature-controlled room at 16° C. and a 12:12 h light:dark cycle. At the time of experiments, leeches will weigh 1-3 g. Before dissection, the leech will be anesthetized in ice-cold leech saline. Leech saline has the following composition (in mM per liter): NaCl-115, KCl-4, CaCl2-1.8, MgCl2-2, HEPES-10, D-Glucose-5 (Sigma-Aldrich, USA). Individual ganglia will be dissected from the mid-body segments M6-M12, and pinned down in Sylgard-filled dissection box. Medial dorsal longitudinal incision will be made and the blood will be flushed away. Connective tissue and the blood vessel overlaying the ganglion chain will be incised. Dissected ganglia will be transferred to a Petri dish, pinned down in paraffin with six stainless steel pins (dorsal side up). PVNs will be microinjected into the extracellular space of the ganglion with a glass micropipette. Intracellular recording will be performed by penetrating the Retzius neurons with sharp glass electrodes (20-30 MOhm) filled with 3M potassium acetate. […] Neuronal firing will be recorded before and after the injections.

[4] = tested on: whole-mount retinas from RCS rats; test: Whole-mount retina multi-electrode array recording; assay type: cell-based, rat
Text: FIGS. 14A-14B depicts data from whole-mount retinas from RCS rats. […] Each bin represents the frequency of spikes for 1 second. Before Rubpy treatment (14A), illumination at 480 nm elicited minimal change in spike frequency. […] Downward arrows mark the time of 100 ms (1st) and 1 second (2nd to fourth) light stimuli.
The retina will be freshly dissected from Royal College of Surgeons (RCS) rats (9 months' or older to ensure total loss of photoreceptors). The whole-mount retina will then be placed onto a multi-electrode array with the ganglion cell layer side facing the electrodes and is held down on the array using a lightly weighted porous membrane. Extracellular field potentials are recorded from 15 or 75 μm diameter electrodes using an MEA1060-Up amplifier and MC Rack software (Multi-Channel Systems). The activity of the retinal in response to illumination is monitored before and after PVN incubation. The retina is continuously perfused with oxygenated (95% O2, 5% CO2), heated (32C) Ames' Medium for baseline activity. The retina is then perfused with Ames' Medium containing PVN for 30 min to 1 hr, followed by 10 min wash with regular Ames' Medium before recording in Ames' Medium with 5-10 mM ascorbate. The retina will be illuminated by white LED light through a bandpass excitation filter (460-500 nm) with durations of 100 μs, 1 ms, 10 ms, 100 ms, 1 s and 30 s. […]

[Ru(bpy)2(bpy-C17)](PF6)2 [RubpyC17]
light-induced depolarization ([1]; 10 μM ~2 min preincubation, 2 mM ascorbate, 488 nm): 14.6 ± 2.4 mV
light-induced hyperpolarization ([1]; 100 uM ferricyanide in extracellular solution): 20.9 ± 4.9 mV
light-induced depolarization with ferrocyanide as reductant ([1]; 0.1 mM ferrocyanide): light-induced depolarization was also observed
effect on biophysical properties of endogenous ion channels (I-V, steady-state activation) [2]: does not alter the biophysical properties of endogenous ion channels
light-induced action potential firing [3]: respond to illumination by firing action potentials; also recorded: light-induced increases in action potential firing
spike frequency on illumination ([4]; 100 micromolar for 30 minutes, 480 nm): spike frequency increased
light-induced action potential firing ([4]; photoreceptor-degenerate retina): respond to illumination by firing action potentials
